{"source": "paper PMC7071106", "about": "(Molecules, 2020)", "key": {"Giardia duodenalis": {"tested_on": "Giardia duodenalis", "assay": "In vitro giardicidal susceptibility assay (trophozoite growth inhibition)", "type": "cell-based, Giardia duodenalis (G. intestinalis strain IMSS:0696:1)", "details": "for SI = CC50/IC50 G. duodenalis: CC50 VERO cells / IC50 G. duodenalis; for IC50: trophozoites, 48 h incubation then 48 h subculture, means of three experiments, read-out: IC50 G. duodenalis", "experimental": "(§1) G. intestinalis strain IMSS:0696:1 and T. vaginalis strain GT3 were cultured in TYI-S-33 medium, complemented with 10% calf serum and bovine bile. […] Subsequently, trophozoites were washed and subcultured for another 48 h in fresh medium without any drugs. Once this time was reached, trophozoites were counted and the median inhibitory concentration (IC50) was calculated. All the experiments were completed in triplicate."}, "Trichomonas vaginalis": {"tested_on": "Trichomonas vaginalis", "assay": "In vitro trichomonicidal susceptibility assay (trophozoite growth inhibition)", "type": "cell-based, Trichomonas vaginalis strain GT3", "details": "for SI = CC50/IC50 T. vaginalis: CC50 VERO cells / IC50 T. vaginalis; for IC50: Trichomonas vaginalis, trophozoites, 48 h incubation then 48 h subculture, means of three experiments, read-out: IC50 T. vaginalis", "experimental": "as §1"}, "[1]": {"assay": "Cytotoxicity on VERO cell line (sulforhodamine B method)", "type": "cell-based, mammalian", "details": "African green monkey, 1–100 µM, means of three experiments", "experimental": "We cultivated 1.5 × 10^4 VERO cells in a 96-well plate and incubated in DMEM media complemented with 10% fetal bovine serum, 100 µg/mL streptomycin, and 100 UI/mL penicillin. The culture was incubated at 37 °C in a 5% CO2 atmosphere with 95% humidity for 48 h. […] After 48 h of incubation, viability of the cells was estimated using the sulforhodamine B method. The concentration of the compounds that killed 50% of the cells (CC50) was calculated by nonlinear fit (GraphPad Prism 4 software). All concentrations were evaluated in triplicate."}}, "note": "Read-outs that look alike come from different tables or passages of the source.", "data": [{"smiles": "Cc1ncc([N+](=O)[O-])n1CCOC(=O)Nc1ccccc1", "note": "[Compound 2, 2-(2-methyl-5-nitro-1H-imidazol-1-yl)ethyl phenylcarbamate]", "values": [{"measurement": "SI = CC50/IC50 G. duodenalis", "setting": "Giardia duodenalis", "value": ">102"}, {"measurement": "IC50", "setting": "Giardia duodenalis", "value": "0.98 ± 0.01", "unit": "µM"}, {"measurement": "SI = CC50/IC50 T. vaginalis", "setting": "Trichomonas vaginalis", "value": ">1111"}, {"measurement": "IC50", "setting": "Trichomonas vaginalis", "value": "0.09 ± 0.01", "unit": "µM"}, {"measurement": "CC50 at 48 h", "setting": "[1]; VERO cells", "value": "> 100", "unit": "µM"}]}, {"smiles": "Cc1ncc([N+](=O)[O-])n1CC(C)OC(=O)Nc1ccccc1", "note": "(centres unmarked) [Compound 7, 1-methyl-2-(2-methyl-5-nitro-1H-imidazol-1-yl)ethyl phenylcarbamate]", "values": [{"measurement": "SI = CC50/IC50 G. duodenalis", "setting": "Giardia duodenalis", "value": ">59"}, {"measurement": "IC50", "setting": "Giardia duodenalis; Giardia duodenalis, 48 h", "value": "1.67 ± 0.21", "unit": "µM"}, {"measurement": "SI = CC50/IC50 T. vaginalis", "setting": "Trichomonas vaginalis", "value": ">15"}, {"measurement": "IC50", "setting": "Trichomonas vaginalis", "value": "6.52 ± 0.71", "unit": "µM"}, {"measurement": "CC50 at 48 h", "setting": "[1]; VERO cells", "value": "> 100", "unit": "µM"}, {"measurement": "melting point", "value": "238.9 to 240.5", "unit": "°C"}]}, {"smiles": "Cc1ncc([N+](=O)[O-])n1CCO", "note": "[Metronidazole, metronidazole, reference compound]", "values": [{"measurement": "IC50", "setting": "Trichomonas vaginalis", "value": "0.93 ± 0.12", "unit": "µM"}, {"measurement": "CC50 at 48 h", "setting": "[1]; VERO cells", "value": "> 100", "unit": "µM"}]}, {"smiles": "Cc1ncc([N+](=O)[O-])n1CCOC(=O)NC1CCCCC1", "note": "[Compound 1, 2-(2-methyl-5-nitro-1H-imidazol-1-yl)ethyl cyclohexylcarbamate]", "values": [{"measurement": "SI = CC50/IC50 G. duodenalis", "setting": "Giardia duodenalis", "value": ">217"}, {"measurement": "IC50", "setting": "Giardia duodenalis; Giardia duodenalis, 48 h", "value": "0.46 ± 0.01", "unit": "µM"}, {"measurement": "SI = CC50/IC50 T. vaginalis", "setting": "Trichomonas vaginalis", "value": ">1666"}, {"measurement": "IC50", "setting": "Trichomonas vaginalis", "value": "0.06 ± 0.01", "unit": "µM"}, {"measurement": "CC50 at 48 h", "setting": "[1]; VERO cells", "value": "> 100", "unit": "µM"}]}, {"smiles": "Cc1ncc([N+](=O)[O-])n1CCOC(=O)Nc1ccc(F)cc1", "note": "[Compound 4, 2-(2-methyl-5-nitro-1H-imidazol-1-yl)ethyl (4-fluorophenyl)carbamate]", "values": [{"measurement": "SI = CC50/IC50 G. duodenalis", "setting": "Giardia duodenalis", "value": ">49"}, {"measurement": "IC50", "setting": "Giardia duodenalis; Giardia duodenalis, 48 h", "value": "2.03 ± 0.01", "unit": "µM"}, {"measurement": "SI = CC50/IC50 T. vaginalis", "setting": "Trichomonas vaginalis", "value": ">31"}, {"measurement": "IC50", "setting": "Trichomonas vaginalis", "value": "3.22 ± 0.21", "unit": "µM"}, {"measurement": "CC50 at 48 h", "setting": "[1]; VERO cells", "value": "> 100", "unit": "µM"}]}, {"smiles": "Cc1ncc([N+](=O)[O-])n1CC(C)O", "note": "(centres unmarked) [Secnidazole, secnidazole, reference compound]", "values": [{"measurement": "SI = CC50/IC50 G. duodenalis", "setting": "Giardia duodenalis", "value": ">24"}, {"measurement": "IC50", "setting": "Giardia duodenalis; Giardia duodenalis, 48 h", "value": "4.11 ± 0.12", "unit": "µM"}, {"measurement": "SI = CC50/IC50 T. vaginalis", "setting": "Trichomonas vaginalis", "value": ">7"}, {"measurement": "IC50", "setting": "Trichomonas vaginalis", "value": "13.5 ± 1.23", "unit": "µM"}, {"measurement": "CC50 at 48 h", "setting": "[1]; VERO cells", "value": "> 100", "unit": "µM"}]}, {"smiles": "Cc1ncc([N+](=O)[O-])n1CCOC(=O)Nc1ccc(Cl)cc1", "note": "[Compound 3, 2-(2-methyl-5-nitro-1H-imidazol-1-yl)ethyl (4-chlorophenyl)carbamate]", "values": [{"measurement": "SI = CC50/IC50 G. duodenalis", "setting": "Giardia duodenalis", "value": ">87"}, {"measurement": "IC50", "setting": "Giardia duodenalis; Giardia duodenalis, 48 h", "value": "1.14 ± 0.12", "unit": "µM"}, {"measurement": "SI = CC50/IC50 T. vaginalis", "setting": "Trichomonas vaginalis", "value": ">55"}, {"measurement": "IC50", "setting": "Trichomonas vaginalis", "value": "1.79 ± 0.12", "unit": "µM"}, {"measurement": "CC50 at 48 h", "setting": "[1]; VERO cells", "value": "> 100", "unit": "µM"}]}, {"smiles": "Cc1ncc([N+](=O)[O-])n1CC(C)OC(=O)NC1CCCCC1", "note": "(centres unmarked) [Compound 6, 1-methyl-2-(2-methyl-5-nitro-1H-imidazol-1-yl)ethyl cyclohexylcarbamate]", "values": [{"measurement": "SI = CC50/IC50 G. duodenalis", "setting": "Giardia duodenalis", "value": ">37"}, {"measurement": "IC50", "setting": "Giardia duodenalis; Giardia duodenalis, 48 h", "value": "2.64 ± 0.61", "unit": "µM"}, {"measurement": "SI = CC50/IC50 T. vaginalis", "setting": "Trichomonas vaginalis", "value": ">11"}, {"measurement": "IC50", "setting": "Trichomonas vaginalis", "value": "8.64 ± 0.73", "unit": "µM"}, {"measurement": "CC50 at 48 h", "setting": "[1]; VERO cells", "value": "> 100", "unit": "µM"}, {"measurement": "melting point", "value": "219.2 to 222.7", "unit": "°C"}]}, {"smiles": "Cc1ncc([N+](=O)[O-])n1CCOC(=O)Nc1ccc([N+](=O)[O-])cc1", "note": "[Compound 5, 2-(2-methyl-5-nitro-1H-imidazol-1-yl)ethyl (4-nitrophenyl)carbamate]", "values": [{"measurement": "SI = CC50/IC50 G. duodenalis", "setting": "Giardia duodenalis", "value": ">41"}, {"measurement": "IC50", "setting": "Giardia duodenalis; Giardia duodenalis, 48 h", "value": "2.43 ± 0.02", "unit": "µM"}, {"measurement": "SI = CC50/IC50 T. vaginalis", "setting": "Trichomonas vaginalis", "value": ">16"}, {"measurement": "IC50", "setting": "Trichomonas vaginalis", "value": "6.25 ± 0.12", "unit": "µM"}, {"measurement": "CC50 at 48 h", "setting": "[1]; read-out: CC50 VERO Cells", "value": "> 100", "unit": "µM"}]}, {"smiles": "Cc1ncc([N+](=O)[O-])n1CC(C)OC(=O)Nc1ccc(Cl)cc1", "note": "(centres unmarked) [Compound 8, 1-methyl-2-(2-methyl-5-nitro-1H-imidazol-1-yl)ethyl (4-chlorophenyl)carbamate]", "values": [{"measurement": "SI = CC50/IC50 G. duodenalis", "setting": "Giardia duodenalis", "value": ">24"}, {"measurement": "IC50", "setting": "Giardia duodenalis; Giardia duodenalis, 48 h", "value": "4.05 ± 0.24", "unit": "µM"}, {"measurement": "SI = CC50/IC50 T. vaginalis", "setting": "Trichomonas vaginalis", "value": ">16"}, {"measurement": "IC50", "setting": "Trichomonas vaginalis", "value": "5.93 ± 0.51", "unit": "µM"}, {"measurement": "CC50 at 48 h", "setting": "[1]; VERO cells", "value": "> 100", "unit": "µM"}, {"measurement": "melting point", "value": "268.1 °C (dec.)"}]}, {"smiles": "Cc1ncc([N+](=O)[O-])n1CC(C)OC(=O)Nc1ccc(F)cc1", "note": "(centres unmarked) [Compound 9, 1-methyl-2-(2-methyl-5-nitro-1H-imidazol-1-yl)ethyl (4-fluorophenyl)carbamate]", "values": [{"measurement": "SI = CC50/IC50 G. duodenalis", "setting": "Giardia duodenalis", "value": ">30"}, {"measurement": "IC50", "setting": "Giardia duodenalis; Giardia duodenalis, 48 h", "value": "3.23 ± 0.11", "unit": "µM"}, {"measurement": "SI = CC50/IC50 T. vaginalis", "setting": "Trichomonas vaginalis", "value": ">20"}, {"measurement": "IC50", "setting": "Trichomonas vaginalis", "value": "4.82 ± 1.08", "unit": "µM"}, {"measurement": "CC50 at 48 h", "setting": "[1]; VERO cells", "value": "> 100", "unit": "µM"}, {"measurement": "melting point", "value": "162.3 to 163.5", "unit": "°C"}]}, {"smiles": "Cc1ncc([N+](=O)[O-])n1CC(C)OC(=O)Nc1ccc([N+](=O)[O-])cc1", "note": "(centres unmarked) [Compound 10, 1-methyl-2-(2-methyl-5-nitro-1H-imidazol-1-yl)ethyl (4-nitrophenyl)carbamate]", "values": [{"measurement": "SI = CC50/IC50 G. duodenalis", "setting": "Giardia duodenalis", "value": ">116"}, {"measurement": "IC50", "setting": "Giardia duodenalis; Giardia duodenalis, 48 h", "value": "0.86 ± 0.09", "unit": "µM"}, {"measurement": "SI = CC50/IC50 T. vaginalis", "setting": "Trichomonas vaginalis", "value": ">10"}, {"measurement": "IC50", "setting": "Trichomonas vaginalis", "value": "9.99 ± 0.56", "unit": "µM"}, {"measurement": "CC50 at 48 h", "setting": "[1]; read-out: CC50 VERO Cells", "value": "> 100", "unit": "µM"}, {"measurement": "melting point", "value": "235.4 °C (dec.)"}]}]}
